Test results published in patent US12152016B2, “Aryl hydrocarbon receptor modulators and uses thereof” (Beth Israel Deaconess Medical Center, Inc., priority 2018, dated 2024).
Entries after “also recorded” stand apart in the source; their conditions may differ.

Experiments:
Assay type in all cases: cell-based
[1] = test system: AHR-dependent transcription of the CYP1A1 gene; experiment: CYP1A1 induction in mouse macrophages
Protocol: Mouse macrophages were also used to test AHR-dependent transcription of the CYP1A1 gene in vivo. Finally, the activity of exemplary compounds of Formula (I) described herein was tested in the human […] cell line U937. The U937 cell line is derived from a patient with diffuse histiocytic lymphoma. Tables 2-4 summarize structure-activity relationship data collected for exemplary, non-limiting compounds of Formula (I) described herein.

[2] = biological target: T1, aryl hydrocarbon receptor (AHR) (Mus musculus, UniProt P30561); experiment: XRE-driven luciferase reporter assay, mouse Hepa1c1c7
T1 construct: Transfection was performed with 150 ng XRE-luciferase plasmid (Promega); endogenous in cells; host or cells: Hepa-1c1c7 (mouse hepatoma cell line)
T1 sequence (P30561 10-805 limits assumed): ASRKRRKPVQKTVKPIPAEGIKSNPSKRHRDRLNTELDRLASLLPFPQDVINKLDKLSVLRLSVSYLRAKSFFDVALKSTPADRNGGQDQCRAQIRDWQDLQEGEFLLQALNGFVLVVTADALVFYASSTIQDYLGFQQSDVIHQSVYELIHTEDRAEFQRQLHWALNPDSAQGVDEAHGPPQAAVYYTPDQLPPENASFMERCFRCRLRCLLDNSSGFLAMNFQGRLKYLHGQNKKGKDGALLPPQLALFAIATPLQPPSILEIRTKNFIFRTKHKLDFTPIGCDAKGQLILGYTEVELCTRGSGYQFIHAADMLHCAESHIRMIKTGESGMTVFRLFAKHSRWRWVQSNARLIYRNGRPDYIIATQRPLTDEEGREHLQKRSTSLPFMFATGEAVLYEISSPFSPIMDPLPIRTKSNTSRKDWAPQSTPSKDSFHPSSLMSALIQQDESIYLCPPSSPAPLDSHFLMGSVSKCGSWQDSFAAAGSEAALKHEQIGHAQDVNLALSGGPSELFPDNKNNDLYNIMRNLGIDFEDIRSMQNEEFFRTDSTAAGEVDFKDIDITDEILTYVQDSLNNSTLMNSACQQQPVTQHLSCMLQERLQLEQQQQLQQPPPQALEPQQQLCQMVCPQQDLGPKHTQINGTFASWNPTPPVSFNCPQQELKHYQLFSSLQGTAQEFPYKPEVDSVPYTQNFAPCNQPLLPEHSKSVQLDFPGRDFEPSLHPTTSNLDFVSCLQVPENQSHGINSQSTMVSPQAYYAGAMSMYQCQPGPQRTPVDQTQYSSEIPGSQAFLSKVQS
T1 sequence (P53762 whole entry partner): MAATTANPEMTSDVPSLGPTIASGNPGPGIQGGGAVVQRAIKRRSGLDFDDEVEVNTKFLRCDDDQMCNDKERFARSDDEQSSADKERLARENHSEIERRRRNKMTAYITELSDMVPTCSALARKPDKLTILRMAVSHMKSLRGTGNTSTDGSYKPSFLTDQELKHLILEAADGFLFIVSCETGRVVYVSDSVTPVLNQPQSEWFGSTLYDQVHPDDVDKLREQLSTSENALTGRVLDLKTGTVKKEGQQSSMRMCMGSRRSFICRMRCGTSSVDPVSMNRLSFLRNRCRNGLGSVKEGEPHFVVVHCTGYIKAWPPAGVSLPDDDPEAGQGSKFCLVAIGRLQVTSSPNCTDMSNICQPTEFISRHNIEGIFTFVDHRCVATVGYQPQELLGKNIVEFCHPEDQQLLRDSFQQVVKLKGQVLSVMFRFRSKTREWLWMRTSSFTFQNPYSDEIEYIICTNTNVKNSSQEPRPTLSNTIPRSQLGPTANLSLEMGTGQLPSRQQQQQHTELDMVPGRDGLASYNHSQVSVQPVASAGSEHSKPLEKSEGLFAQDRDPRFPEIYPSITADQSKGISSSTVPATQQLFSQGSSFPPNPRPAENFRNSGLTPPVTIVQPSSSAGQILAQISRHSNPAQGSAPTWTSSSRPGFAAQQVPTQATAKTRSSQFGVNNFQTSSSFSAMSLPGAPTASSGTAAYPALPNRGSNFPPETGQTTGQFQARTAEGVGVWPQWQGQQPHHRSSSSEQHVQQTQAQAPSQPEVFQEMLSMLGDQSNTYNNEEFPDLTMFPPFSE
Protocol: Human HepG2 or mouse Hepa-1c1c7 cells were seeded in 96 well opaque plates at 75,000 cells per well in full medium (DMEM+10% FBS) for 24 hours. Transfection was performed with 150 ng XRE-luciferase plasmid (Promega) with 4:1 Fugene to DNA ratio for 18 hours in Opti-MEM. Transfected cells were treated with AhR agonist (10^−5-10^−12) for 4.5 h in full medium. Cells were lysed and luciferase was activated using the Luciferase Assay System (Promega). Luminescence signals were measured with a FluroStar Omega microplate reader. Luminescence signals of compound treated groups were normalized to vehicle (DMSO) treated control and plotted as concentration dependent fold changes.

[3] = biological target: T2, AhR (Homo sapiens, UniProt P35869); experiment: AhR nuclear translocation assay, human HepG2; conditions: human HepG2, 10 μM, 90 minutes
T2 construct: endogenous in cells; host or cells: HepG2 (human liver cancer cell line)
T2 sequence (P35869 11-848): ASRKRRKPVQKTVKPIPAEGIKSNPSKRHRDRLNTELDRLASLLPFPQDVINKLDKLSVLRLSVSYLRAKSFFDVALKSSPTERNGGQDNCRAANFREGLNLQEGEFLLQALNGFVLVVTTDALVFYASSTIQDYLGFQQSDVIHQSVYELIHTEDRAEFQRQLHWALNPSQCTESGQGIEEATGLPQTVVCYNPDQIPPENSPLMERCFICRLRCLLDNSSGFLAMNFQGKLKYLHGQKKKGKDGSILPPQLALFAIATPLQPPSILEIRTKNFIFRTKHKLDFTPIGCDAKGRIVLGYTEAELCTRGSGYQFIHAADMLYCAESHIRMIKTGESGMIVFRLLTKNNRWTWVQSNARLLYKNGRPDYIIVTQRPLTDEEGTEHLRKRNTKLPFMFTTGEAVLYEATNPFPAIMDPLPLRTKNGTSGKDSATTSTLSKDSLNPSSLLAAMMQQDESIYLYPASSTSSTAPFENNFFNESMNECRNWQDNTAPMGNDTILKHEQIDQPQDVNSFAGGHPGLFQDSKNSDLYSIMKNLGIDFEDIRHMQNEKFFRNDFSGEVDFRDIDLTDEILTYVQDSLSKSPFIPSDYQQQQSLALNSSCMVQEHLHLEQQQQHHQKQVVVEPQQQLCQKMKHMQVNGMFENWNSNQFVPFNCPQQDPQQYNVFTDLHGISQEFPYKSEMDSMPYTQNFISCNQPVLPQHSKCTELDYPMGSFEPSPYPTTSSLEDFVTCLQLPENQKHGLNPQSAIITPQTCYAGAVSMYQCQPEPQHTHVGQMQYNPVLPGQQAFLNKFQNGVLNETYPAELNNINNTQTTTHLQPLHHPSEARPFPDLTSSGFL
Protocol: Mouse Hepa-1c1c7 or human HepG2 cells were seeded in 8 well chamber slides followed by 24 hours incubation in tryptophan deficient media (HBSS with Ca^2+ and Mg^2+, 10% heat inactivated FBS, 1× non-essential amino acids, 1× sodium pyruvate, 4.5 g/L glucose). Cells were treated with vehicle control (DMSO) or 10 μM ITE, compound 108, or compound 109 for 90 minutes in tryptophan deficient media. Following treatment, cells were fixed in 4% formaldehyde and processed according to standard immunofluorescence staining protocol. Primary anti-AhR antibody was applied at 1:100 dilution (Enzo, BML-SA210) and Alexa488 conjugated secondary antibody was applied at 1:500 dilution (Cell Signaling, 4412S). Actin was stained using Alexa 568 conjugated Phalloidin (Fisher). Samples were mounted in anti-fade mounting medium supplemented with DAPI for nuclear staining and imaged with confocal microscopy (Leica SP5×MP, 63× oil lens).

N#Cc1cccc(C(=O)c2c[nH]c3ccccc23)n1 [Compound 108, 6-(1H-indole-3-carbonyl)pyridine-2-carbonitrile]
CYP1A1 induction (% of ITE ± SEM) ([1]; 50 nM): 33 ± 3 % of ITE | CYP1A1 induction (% of ITE ± SEM) ([1]; 5 μM): 94 ± 24 % of ITE | EC50 [2]: 94 nM | XRE luciferase Emax (fold) [2]: 86 fold | AhR nuclear translocation [3]: localized in the nucleus; also recorded: rapid nuclear enrichment of AhR
